Data from ChEMBL document CHEMBL5696442, “Discovery of type II inhibitors of TGFβ-activated kinase 1 (TAK1) and mitogen-activated protein kinase kinase kinase kinase 2 (MAP4K2)” (J Med Chem, 2015).
Active and inactive are the calls of the source. The calls are words filed in the database; no cut-off is given here.

Tests used:
[1] = target: T1, Phosphatidylinositol 5-phosphate 4-kinase type-2 gamma (Homo sapiens) (UniProt Q8TBX8); experiment: Inhibition of PIP4K2C ATP labeling site harbouring VKELPTLKDMDFLNK in human Huh-7 cells at 1 uM by KiNativ Profiling analysis relative to control; format: cell-based
T1 sequence (whole entry): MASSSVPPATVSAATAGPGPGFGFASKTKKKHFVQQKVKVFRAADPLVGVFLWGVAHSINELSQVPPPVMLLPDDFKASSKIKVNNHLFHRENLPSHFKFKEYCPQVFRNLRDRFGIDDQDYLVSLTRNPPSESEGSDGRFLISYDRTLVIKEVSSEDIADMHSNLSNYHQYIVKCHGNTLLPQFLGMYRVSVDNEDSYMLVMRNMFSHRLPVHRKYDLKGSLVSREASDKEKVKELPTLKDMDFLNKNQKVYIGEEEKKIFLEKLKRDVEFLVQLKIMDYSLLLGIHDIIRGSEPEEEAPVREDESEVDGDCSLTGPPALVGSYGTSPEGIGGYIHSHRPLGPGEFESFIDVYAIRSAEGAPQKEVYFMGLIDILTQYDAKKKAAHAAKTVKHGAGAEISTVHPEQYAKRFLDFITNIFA

[2] = target: Dual specificity mitogen-activated protein kinase kinase 2 (Homo sapiens) (UniProt P36507); experiment: Inhibition of MAP2K2 Lys2 labeling site in human Huh-7 cell lysate at 1 uM by KiNativ Profiling analysis relative to control; format: subcellular
Sequence of Dual specificity mitogen-activated protein kinase kinase 2 (Homo sapiens) (P36507 whole entry): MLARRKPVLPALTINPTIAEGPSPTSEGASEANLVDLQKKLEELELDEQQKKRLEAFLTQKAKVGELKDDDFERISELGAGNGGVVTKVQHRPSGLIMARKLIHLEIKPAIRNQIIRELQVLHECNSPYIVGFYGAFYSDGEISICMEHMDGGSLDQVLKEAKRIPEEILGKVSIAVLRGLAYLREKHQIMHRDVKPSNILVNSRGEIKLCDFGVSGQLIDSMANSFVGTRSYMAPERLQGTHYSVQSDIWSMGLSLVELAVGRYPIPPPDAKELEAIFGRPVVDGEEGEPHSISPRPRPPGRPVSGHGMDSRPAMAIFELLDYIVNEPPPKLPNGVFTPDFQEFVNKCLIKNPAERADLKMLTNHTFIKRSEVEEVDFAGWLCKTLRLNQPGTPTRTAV

[3] = target: T1, Phosphatidylinositol 5-phosphate 4-kinase type-2 gamma (Homo sapiens); experiment: Inhibition of PIP4K2C ATP labeling site harbouring VKELPTLK in human A-375 cells at 5 uM by KiNativ Profiling analysis relative to control; format: cell-based
[4] = target: Tyrosine-protein kinase ABL1 (Homo sapiens, UniProt P00519); experiment: Inhibition of nonphosphorylated ABL1 (unknown origin) at 1 uM by Ambit Kinomescan binding assay relative to control
[5] = target: Ephrin type-A receptor 7 (Homo sapiens) (UniProt Q15375); experiment: Inhibition of EPHA7 (unknown origin) at 1 uM by Ambit Kinomescan binding assay relative to control
[6] = target: Mitogen-activated protein kinase kinase kinase kinase 4 (Homo sapiens, UniProt O95819); experiment: Inhibition of ZC1/HGK K2 labeling site in human Huh-7 cells at 10 uM by KiNativ Profiling analysis relative to control; format: cell-based
Sequence of Mitogen-activated protein kinase kinase kinase kinase 4 (O95819 2-1239 limits assumed): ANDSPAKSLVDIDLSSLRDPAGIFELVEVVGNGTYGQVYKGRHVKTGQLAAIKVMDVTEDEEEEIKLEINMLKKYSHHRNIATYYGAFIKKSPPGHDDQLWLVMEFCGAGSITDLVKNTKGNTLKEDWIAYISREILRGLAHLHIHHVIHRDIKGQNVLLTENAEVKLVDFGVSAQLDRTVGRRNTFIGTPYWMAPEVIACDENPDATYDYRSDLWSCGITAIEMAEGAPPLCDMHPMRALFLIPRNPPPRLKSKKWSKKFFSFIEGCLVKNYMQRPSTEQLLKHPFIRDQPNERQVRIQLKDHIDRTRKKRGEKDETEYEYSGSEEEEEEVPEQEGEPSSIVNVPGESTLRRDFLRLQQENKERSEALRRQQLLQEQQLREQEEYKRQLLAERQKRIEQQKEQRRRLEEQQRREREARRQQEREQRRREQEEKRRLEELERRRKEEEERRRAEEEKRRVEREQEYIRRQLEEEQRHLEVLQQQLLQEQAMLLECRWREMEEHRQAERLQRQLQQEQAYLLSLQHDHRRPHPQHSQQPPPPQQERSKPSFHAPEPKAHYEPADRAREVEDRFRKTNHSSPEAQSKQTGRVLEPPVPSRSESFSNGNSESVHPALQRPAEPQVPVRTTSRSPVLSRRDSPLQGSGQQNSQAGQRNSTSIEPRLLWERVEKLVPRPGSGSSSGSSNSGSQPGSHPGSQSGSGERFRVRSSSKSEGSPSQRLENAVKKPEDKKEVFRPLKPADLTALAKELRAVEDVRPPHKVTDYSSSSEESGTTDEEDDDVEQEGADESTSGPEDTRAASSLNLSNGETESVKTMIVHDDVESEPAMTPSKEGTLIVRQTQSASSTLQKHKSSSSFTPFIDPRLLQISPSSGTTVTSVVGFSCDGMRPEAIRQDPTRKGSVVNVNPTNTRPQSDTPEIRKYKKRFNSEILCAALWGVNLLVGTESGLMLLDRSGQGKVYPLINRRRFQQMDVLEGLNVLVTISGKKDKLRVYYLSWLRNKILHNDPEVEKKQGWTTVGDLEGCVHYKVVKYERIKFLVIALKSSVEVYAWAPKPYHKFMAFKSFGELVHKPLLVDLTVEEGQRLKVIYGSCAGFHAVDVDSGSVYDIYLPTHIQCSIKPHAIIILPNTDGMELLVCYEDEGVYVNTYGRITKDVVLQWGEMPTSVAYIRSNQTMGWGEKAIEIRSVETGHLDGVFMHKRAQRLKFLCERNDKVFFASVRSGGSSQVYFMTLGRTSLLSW

[7] = target: eIF-2-alpha kinase GCN2 (Homo sapiens) (UniProt Q9P2K8); experiment: Inhibition of GCN2 K2 labeling site in human Huh-7 cells at 10 uM by KiNativ Profiling analysis relative to control; format: cell-based
Sequence of eIF-2-alpha kinase GCN2 (Homo sapiens) (Q9P2K8 whole entry): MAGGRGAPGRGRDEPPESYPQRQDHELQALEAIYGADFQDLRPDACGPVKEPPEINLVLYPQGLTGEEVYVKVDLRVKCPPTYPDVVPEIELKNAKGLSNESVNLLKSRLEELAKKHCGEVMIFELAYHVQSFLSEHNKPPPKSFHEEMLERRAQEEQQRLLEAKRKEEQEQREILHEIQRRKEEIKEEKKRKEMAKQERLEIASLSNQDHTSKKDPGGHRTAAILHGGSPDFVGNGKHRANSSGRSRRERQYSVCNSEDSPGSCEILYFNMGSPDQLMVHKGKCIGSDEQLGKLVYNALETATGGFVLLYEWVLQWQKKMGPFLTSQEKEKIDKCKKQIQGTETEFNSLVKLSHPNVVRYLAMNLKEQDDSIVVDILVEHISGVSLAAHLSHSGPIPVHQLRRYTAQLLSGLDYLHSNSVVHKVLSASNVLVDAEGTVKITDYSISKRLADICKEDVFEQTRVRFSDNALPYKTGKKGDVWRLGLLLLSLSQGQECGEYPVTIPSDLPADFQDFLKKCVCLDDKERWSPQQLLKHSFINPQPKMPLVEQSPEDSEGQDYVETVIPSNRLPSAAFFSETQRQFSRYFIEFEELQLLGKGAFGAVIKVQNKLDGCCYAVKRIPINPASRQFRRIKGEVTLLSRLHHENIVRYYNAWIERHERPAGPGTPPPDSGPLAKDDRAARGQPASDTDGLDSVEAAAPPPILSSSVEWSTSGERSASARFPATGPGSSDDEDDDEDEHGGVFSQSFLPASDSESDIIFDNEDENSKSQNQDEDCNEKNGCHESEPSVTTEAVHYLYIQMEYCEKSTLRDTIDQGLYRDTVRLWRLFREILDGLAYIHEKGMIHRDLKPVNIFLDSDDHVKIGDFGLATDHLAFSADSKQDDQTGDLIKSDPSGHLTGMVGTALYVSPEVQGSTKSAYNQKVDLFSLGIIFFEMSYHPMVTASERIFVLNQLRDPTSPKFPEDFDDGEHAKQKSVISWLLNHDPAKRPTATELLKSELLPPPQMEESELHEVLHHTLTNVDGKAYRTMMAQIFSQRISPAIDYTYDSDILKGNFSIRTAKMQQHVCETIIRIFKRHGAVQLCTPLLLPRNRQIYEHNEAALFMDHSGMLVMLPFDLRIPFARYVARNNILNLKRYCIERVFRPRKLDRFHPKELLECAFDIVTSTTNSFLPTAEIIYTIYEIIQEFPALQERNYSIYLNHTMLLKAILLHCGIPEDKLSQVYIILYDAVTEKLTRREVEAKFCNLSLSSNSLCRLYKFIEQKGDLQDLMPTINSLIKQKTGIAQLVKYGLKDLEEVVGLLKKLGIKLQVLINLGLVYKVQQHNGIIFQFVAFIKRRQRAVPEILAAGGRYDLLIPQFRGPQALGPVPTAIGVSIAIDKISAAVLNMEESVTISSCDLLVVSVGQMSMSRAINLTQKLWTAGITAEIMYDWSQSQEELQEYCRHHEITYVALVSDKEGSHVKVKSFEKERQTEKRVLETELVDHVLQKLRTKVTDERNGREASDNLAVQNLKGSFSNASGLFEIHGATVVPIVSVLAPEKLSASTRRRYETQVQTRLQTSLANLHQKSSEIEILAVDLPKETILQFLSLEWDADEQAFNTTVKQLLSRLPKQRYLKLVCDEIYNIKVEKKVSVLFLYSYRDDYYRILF

[8] = target: T2, NUAK family SNF1-like kinase 1 (Homo sapiens) (UniProt O60285); experiment: Inhibition of NuaK1 K2 labeling site in human Huh-7 cells at 1 uM by KiNativ Profiling analysis relative to control; format: cell-based
T2 sequence (whole entry): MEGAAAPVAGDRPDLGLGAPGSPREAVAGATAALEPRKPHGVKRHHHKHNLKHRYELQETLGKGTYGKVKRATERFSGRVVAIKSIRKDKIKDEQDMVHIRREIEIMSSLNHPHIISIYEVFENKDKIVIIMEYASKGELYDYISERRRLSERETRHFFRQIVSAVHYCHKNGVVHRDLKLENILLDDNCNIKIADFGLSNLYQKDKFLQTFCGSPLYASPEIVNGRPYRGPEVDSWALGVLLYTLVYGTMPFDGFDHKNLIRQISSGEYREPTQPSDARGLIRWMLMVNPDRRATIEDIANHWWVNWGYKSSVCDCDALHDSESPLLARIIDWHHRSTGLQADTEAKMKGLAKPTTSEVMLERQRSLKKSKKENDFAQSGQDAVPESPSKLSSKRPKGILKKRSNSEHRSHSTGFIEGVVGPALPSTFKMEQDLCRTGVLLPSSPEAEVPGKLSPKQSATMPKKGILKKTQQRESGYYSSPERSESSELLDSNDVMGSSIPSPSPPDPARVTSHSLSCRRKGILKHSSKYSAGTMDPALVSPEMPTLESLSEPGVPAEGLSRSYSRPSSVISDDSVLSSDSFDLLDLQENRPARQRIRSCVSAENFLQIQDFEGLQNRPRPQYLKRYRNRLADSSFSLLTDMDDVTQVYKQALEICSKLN

[9] = target: BMP-2-inducible protein kinase (Homo sapiens) (UniProt Q9NSY1); experiment: Inhibition of BIKE (unknown origin) at 10 uM by Ambit Kinomescan binding assay
Sequence of BMP-2-inducible protein kinase (Homo sapiens) (Q9NSY1 whole entry, looked up): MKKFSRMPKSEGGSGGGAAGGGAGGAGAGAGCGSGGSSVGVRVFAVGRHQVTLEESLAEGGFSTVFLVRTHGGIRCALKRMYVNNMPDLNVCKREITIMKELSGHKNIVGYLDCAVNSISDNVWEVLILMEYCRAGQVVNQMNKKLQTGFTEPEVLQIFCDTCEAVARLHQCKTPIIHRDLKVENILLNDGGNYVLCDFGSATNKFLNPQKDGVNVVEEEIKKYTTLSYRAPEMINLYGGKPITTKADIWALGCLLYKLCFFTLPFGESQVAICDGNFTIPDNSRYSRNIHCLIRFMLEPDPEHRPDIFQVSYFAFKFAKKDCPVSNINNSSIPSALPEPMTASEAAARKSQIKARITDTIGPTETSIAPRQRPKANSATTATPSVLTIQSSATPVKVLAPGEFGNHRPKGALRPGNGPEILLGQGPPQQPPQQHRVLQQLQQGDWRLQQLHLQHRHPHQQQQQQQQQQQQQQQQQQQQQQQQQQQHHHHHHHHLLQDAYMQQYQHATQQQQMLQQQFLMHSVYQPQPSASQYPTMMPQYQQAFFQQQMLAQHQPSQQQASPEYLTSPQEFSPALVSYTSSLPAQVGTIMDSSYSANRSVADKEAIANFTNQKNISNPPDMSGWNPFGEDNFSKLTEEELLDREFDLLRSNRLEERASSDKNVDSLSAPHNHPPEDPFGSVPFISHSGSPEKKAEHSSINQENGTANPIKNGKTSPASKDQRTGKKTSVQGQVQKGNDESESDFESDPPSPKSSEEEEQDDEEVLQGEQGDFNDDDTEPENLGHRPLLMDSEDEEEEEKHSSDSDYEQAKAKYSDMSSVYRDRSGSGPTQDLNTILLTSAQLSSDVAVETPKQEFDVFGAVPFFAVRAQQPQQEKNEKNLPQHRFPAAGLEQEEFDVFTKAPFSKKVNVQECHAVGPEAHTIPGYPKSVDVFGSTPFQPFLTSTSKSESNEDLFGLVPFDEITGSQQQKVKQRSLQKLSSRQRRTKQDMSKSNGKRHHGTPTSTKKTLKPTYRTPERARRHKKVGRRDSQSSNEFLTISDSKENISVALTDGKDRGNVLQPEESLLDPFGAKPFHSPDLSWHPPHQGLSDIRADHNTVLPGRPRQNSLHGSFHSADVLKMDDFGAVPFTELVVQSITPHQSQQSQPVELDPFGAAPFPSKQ

[10] = target: Calcium/calmodulin-dependent protein kinase type II subunit delta (Homo sapiens) (UniProt Q13557); experiment: Inhibition of CaMK2d Lys1 labeling site in human A-375 cells at 5 uM by KiNativ Profiling analysis relative to control; format: cell-based
Sequence of Calcium/calmodulin-dependent protein kinase type II subunit delta (Homo sapiens) (Q13557 whole entry): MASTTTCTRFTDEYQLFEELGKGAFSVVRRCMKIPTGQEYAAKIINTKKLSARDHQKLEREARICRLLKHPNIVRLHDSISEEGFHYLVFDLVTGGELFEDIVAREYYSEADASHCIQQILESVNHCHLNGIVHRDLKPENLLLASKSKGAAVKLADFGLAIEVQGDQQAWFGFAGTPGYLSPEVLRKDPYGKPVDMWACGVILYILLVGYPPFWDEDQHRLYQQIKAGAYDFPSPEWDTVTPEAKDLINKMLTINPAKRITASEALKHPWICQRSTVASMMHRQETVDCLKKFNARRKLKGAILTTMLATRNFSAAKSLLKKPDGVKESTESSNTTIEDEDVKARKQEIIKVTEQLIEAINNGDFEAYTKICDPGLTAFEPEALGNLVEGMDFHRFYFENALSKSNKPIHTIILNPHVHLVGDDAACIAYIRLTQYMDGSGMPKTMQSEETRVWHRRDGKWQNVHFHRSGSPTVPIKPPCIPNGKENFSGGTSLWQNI

[11] = target: Tyrosine-protein kinase ABL2 (Homo sapiens, UniProt P42684); experiment: Inhibition of ABL2 (unknown origin) at 10 uM by Ambit Kinomescan binding assay relative to control; values are per cent of control
[12] = Inhibition of KHS1 Lys2 labeling site in human A-375 cells at 0.05 uM by KiNativ Profiling analysis relative to control; details: condition cancer
[13] = target: Cyclin-dependent kinase-like 2 (Homo sapiens) (UniProt Q92772); experiment: Inhibition of CDKL2 (unknown origin) at 10 uM by Ambit Kinomescan binding assay relative to control
[14] = target: 5'-AMP-activated protein kinase catalytic subunit alpha-2 (Homo sapiens) (UniProt P54646); experiment: Inhibition of AMPK-alpha2 (unknown origin) at 10 uM by Ambit Kinomescan binding assay

## CNc1cc(Oc2cc(C(=O)Nc3cc(N4CCN(C)CC4)cc(C(F)(F)F)c3)ccc2C)ncn1
[1]
  inhibition: 5.4%
[2]
  inhibition: 15.6%

## CCN1CCN(Cc2ccc(NC(=O)c3ccc(C)c(/C=C/c4cnc5[nH]ccc5c4OC)c3)cc2C(F)(F)F)CC1
[3]
  inhibition: -6%
[4]
  inhibition: 0%
[5]
  inhibition: 78%

## CCN1CCN(Cc2ccc(NC(=O)c3ccc(C)c(Oc4ccnc5[nH]ccc45)c3)cc2C(F)(F)F)CC1
[6]
  inhibition: 72.6%
[7]
  inhibition: 14.7%
[8]
  inhibition: -9.8%
[9]
  inhibition: inactive
[10]
  inhibition: 18.9%
[11]
  % of control: 0.6%
[12]
  inhibition at 0.05 µM: -15.4%
[13]
  inhibition: 0.9%
[14]
  inhibition: inactive
